Test results: patent US6685935B1 (priority 1995, dated 2004)
Like-named read-outs stand apart in the source and are kept apart here.

Legend:
C57B6 mice = conditions: mouse, in vivo, ip
B16F10 melanoma cells = type: cell-based, mouse
Protocol: FIG. 11-F is a graph showing the growth of B16F10 melanoma cells in monolayer culture in the presence or absence of ganciclovir at 10 μg/ml or 25 μg/ml.

[1] = system: B16F10 melanoma in C57B6 mice; type: in vivo, mouse
Protocol: C57B6 mice were inoculated s.c., left shoulder region, with […] B16F10 melanoma cells from culture. […] At 18 days post-tumor implantation (10 days post bacterial inoculation) all animals were given enrofloxacin antibiotic, 0.2 mg/ml, in their drinking water (BAYTRIL™) and maintained with this antibiotic supplement for 2 weeks. Tumor growth was assessed by caliper measurements and computed as volume in mm^3. Animals were euthanized and listed as dead when the sum of their tumor measurements, length+width+height, reached 60 mm, or when they became moribund (listless, cessation of drinking).
C57B6 female mice, 5-7 weeks old, were inoculated s.c. in the left shoulder region with 5×10^5 B16F10 melanoma cells grown in culture. […] Tumor growth was assessed with periodic caliper measurements of tumor length, width and height, and computed as tumor volume in mm^3. Results of tumor growth, shown in FIGS. 16A-D represent the averages±SD for 5 animals/group with 5/5 animals surviving. After the point at which one or more animals died within a group, the average tumor sizes of the surviving animals were no longer shown when the data were plotted as shown in FIGS. 16A-D.
The animals were allowed to eat and drink ad libitum. Twenty-three days (Experiment #1) or 10 days (Experiment #2) following inoculation of bacteria, both control and bacteria treated mice were given Baytril™ (enrofloxacin, 0.2 mg/ml drinking water) and maintained on this antibiotic for a total of 2 weeks. In Experiment #1 the times at which the mice became moribund (listless, cessation of drinking) or died, were noted. The results are presented in Table 20(F) as the average survival±SD for the conditions tested. In Experiment #2 animals were sacrificed when the tumor reached 4 g and listed with the other dead as described in Experiment #1. The two different methods for assessing survival accounted for a somewhat shorter survival time for control animals in Experiment #2 (26 days) as compared to Experiment #1 (28 days).

[2] = system: Cloudman S91 melanoma/macrophage hybrid #48 tumors in DBA/2J mice

| SMILES | Avg. time of Death ± S.D. (C57B6 mice) | proliferation of B16F10 melanoma cells in culture (B16F10 melanoma cells; GCV 10 μg/ml) | proliferation of B16F10 melanoma cells in culture (B16F10 melanoma cells; GCV 25 μg/ml) | Time Days ± S.D. ([1]; GCV 3.75 mg, no bacteria) | Treated/Control T/C ([1]; GCV 3.75 mg, no bacteria) | effect on tumor volume ([1]; GCV 3.75 mg-10 mg/mouse days 11-12, no bacteria) | side-effects of ganciclovir treatment ([2]; 2.5 mg i.p. four times over 3 days, no bacteria) | Mean Tumor Doubling Time ([2]; 3×10^5 c.f.u. bacteria i.p., ganciclovir 2.0 mg, 6 inoculations over 5 days) |
| --- | --- | --- | --- | --- | --- | --- | --- | --- |
| CCN1CCN(c2cc3c(cc2F)c(=O)c(C(=O)O)cn3C2CC2)CC1 [enrofloxacin, 1-cyclopropyl-7-(4-ethyl-1-piperazinyl)-6-fluoro-1,4-dihydro-4-oxo-3-quinolinecarboxylic acid] | >21 days | – | – | – | – | – | – | – |
| Nc1nc(O)c2ncn(COC(CO)CO)c2n1 [ganciclovir, ganciclovir sodium] | – | not | significantly suppressed | 27 ± 1 days | 1.1 | small reduction in tumor volume | little or no side-effects | 94 h |
